Data as given in doi:10.1101/2024.08.13.607785v1 (biorxiv, 2024).

Experiments:
Experiment in all cases: biochemical
Set-up in all cases: species or system human cell line lysate
[1] = target: Cyclin-dependent kinase 12 ; CDK12 ; Q9NYV4 (Homo sapiens, UniProt Q9NYV4)
[2] = target: Cyclin-dependent kinase 10 ; CDK10 ; Q15131 (Homo sapiens, UniProt Q15131)
[3] = target: Cyclin-dependent-like kinase 5 ; CDK5 ; Q00535 (Homo sapiens, UniProt Q00535)
Sequence of Cyclin-dependent-like kinase 5 ; CDK5 ; Q00535 (Q00535 whole entry, one chain of several): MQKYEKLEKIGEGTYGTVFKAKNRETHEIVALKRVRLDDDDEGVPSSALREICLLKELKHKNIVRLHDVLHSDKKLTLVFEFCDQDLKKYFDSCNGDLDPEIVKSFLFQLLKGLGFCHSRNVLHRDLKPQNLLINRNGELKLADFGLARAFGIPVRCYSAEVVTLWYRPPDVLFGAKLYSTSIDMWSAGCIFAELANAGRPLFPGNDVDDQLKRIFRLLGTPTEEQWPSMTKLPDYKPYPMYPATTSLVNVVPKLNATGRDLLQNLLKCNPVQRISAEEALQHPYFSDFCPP

Sequence of Cyclin-dependent kinase 12 ; CDK12 ; Q9NYV4 (Q9NYV4 whole entry, one chain of several): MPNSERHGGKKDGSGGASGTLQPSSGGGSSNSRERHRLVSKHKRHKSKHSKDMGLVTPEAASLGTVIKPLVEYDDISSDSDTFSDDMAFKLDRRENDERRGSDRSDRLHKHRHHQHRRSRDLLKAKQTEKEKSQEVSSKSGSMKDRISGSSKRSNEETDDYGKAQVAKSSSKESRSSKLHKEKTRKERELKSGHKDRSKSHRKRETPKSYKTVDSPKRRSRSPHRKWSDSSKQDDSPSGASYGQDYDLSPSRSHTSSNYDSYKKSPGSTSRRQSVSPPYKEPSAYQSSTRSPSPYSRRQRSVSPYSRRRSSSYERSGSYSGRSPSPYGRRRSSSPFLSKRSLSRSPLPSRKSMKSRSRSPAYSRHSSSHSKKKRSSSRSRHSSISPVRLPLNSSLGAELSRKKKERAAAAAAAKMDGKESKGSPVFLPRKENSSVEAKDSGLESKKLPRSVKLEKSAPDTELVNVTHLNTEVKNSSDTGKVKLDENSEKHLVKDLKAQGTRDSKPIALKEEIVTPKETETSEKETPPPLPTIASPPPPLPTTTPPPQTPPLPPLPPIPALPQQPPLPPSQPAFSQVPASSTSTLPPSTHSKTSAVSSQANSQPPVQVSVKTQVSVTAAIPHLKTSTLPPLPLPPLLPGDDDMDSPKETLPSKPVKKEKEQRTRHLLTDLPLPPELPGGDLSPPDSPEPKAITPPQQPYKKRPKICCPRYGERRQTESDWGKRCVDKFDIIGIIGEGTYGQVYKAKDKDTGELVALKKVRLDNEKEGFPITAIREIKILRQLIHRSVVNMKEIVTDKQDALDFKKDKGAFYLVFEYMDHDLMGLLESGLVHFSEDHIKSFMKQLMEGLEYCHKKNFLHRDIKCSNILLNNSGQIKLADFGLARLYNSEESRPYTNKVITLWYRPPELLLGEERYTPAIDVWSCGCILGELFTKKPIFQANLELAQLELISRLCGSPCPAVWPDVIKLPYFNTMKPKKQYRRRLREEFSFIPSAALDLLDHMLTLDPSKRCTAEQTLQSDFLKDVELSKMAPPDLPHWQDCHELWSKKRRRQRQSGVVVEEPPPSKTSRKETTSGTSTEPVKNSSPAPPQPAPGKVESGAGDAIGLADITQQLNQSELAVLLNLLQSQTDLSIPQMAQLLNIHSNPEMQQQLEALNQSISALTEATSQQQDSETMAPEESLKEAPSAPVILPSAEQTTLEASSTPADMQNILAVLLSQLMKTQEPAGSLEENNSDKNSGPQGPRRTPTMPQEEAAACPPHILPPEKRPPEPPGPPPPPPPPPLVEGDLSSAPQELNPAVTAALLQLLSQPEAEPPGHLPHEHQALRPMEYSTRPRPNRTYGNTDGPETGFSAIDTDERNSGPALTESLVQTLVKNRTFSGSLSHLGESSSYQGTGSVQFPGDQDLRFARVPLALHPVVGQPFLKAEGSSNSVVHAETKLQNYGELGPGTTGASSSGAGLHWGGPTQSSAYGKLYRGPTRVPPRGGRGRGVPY
Sequence of Cyclin-dependent kinase 10 ; CDK10 ; Q15131 (Q15131 whole entry, one chain of several): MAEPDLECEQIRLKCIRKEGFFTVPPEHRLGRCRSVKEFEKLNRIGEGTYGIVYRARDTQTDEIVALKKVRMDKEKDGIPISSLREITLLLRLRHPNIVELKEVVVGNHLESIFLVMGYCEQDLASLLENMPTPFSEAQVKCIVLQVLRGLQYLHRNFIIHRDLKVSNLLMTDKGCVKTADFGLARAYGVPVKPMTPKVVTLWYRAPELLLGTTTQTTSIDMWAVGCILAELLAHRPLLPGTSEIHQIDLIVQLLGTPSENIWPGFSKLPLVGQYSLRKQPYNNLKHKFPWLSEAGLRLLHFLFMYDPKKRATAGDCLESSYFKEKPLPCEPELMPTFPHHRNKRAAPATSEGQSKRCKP

IC50 [1]	IC50 [2]	IC50 [3]	SMILES
> 10 µM	–	–	COc1cc(F)ccc1-c1ncnc(Nc2cccc(C[S@](C)(=N)=O)c2)n1 [BAY-1143572]
–	1.09 µM	> 10 µM	COc1cc(F)ccc1-c1cc(Nc2cc(CS(C)(=N)=O)ccn2)ncc1F (stereo not drawn) [BAY-1251152]
